Laboratory results from patent US11591297B2, “Compound having PD-L1 expression-suppressing action” (TOHOKU UNIVERSITY, priority 2019, dated 2023).

System: Jurkat cells
Assay: Caspase 3/7 assay: apoptosis of Jurkat cells co-cultured with IFN-γ-treated A549 cells (PD-1/PD-L1 binding)
Assay type: cell-based
Conditions: Homo sapiens; for IC50: Jurkat cells co-cultured with A549 cells pre-cultured with IFN-γ and test compound, read-out: IC50 (50% inhibition concentration of Caspase 3/7 activity)
Source text: The supernatants of each culture liquid containing A549 cells expressing PD-L1 pre-cultured with the addition of IFN-γ or human acute T-cell leukemia cell-derived Jurkat cells expressing PD-1 pre-cultured with the addition of Phorbol 12-myristate 13-Acetate (hereinafter, referred to as “PMA”: Sigma Cat #1585) and phytohemagglutinin-L (hereinafter, referred to as “PHA-L”: Roche Cat #11249738001) were removed, the culture liquids were co-cultured in new medium. The Caspase 3/7 activity of the co-cultured Jurkat cells was measured, and the measured activity was used as an index of apoptosis. Each test compound was added into the A549 cell culture liquid during the pre-culture.
(1) A549 cells were suspended in DMEM medium at 1×10^5 cells/mL to prepare an A549 cell suspension, and the A549 cell suspension was dispensed into each well a 6 well plate in an amount of 3 mL.
(2) Separately, Jurkat cells were suspended in RPMI medium at 3×10^5 cells/mL to prepare a Jurkat cell suspension, and the Jurkat cell suspension was dispensed into a T25 flask in an amount of 5 mL.
(3) The 6-well plate of the above step (1) and the T25 flask of the above step (2) were incubated together in a CO2 incubator (at 37° C. and 5% CO2) for 24±2 hours.
(1) To 3 mL of the A549 cell culture liquid were added IFN-γ (25 ng/mL) and a test compound, and the cell culture liquid was continuously cultured. The 50 mmol/L solution of the test compound in DMSO was diluted to 100 times with DMEM medium, and then the diluted solution was added as test compound group in an amount of 3 μL, 6 μL or 12 μL (final concentration: 0.5 μmol/L, 1.0 μmol/L or 2 μmol/L). In the control group, DMSO diluted to 100 times with DMEM medium was added in an amount of 12 μL. (2) Separately, to the Jurkat cell culture liquid were added PMA (final concentration: 12.5 ng/mL) and PHA (final concentration: 250 ng/mL), and the cell culture liquid was continuously cultured. [Day 3]
Cells were separated from A549 cell culture liquid with Cell Dissociation Solution Non-enzymatic (Sigma Cat No. C5914-100ML), and the cell culture liquid was centrifuged at 300×g for 5 minutes and the supernatant thereof was removed, and then the cells were suspended in RPMI medium at 4×10^5 cells/mL to prepare an A549 cell suspension.
The Jurkat cell culture liquid was centrifuged at 300×g for 5 minutes and the supernatant thereof was removed, and then the cells therein were suspended in RPMI medium at 4×10^4 cells/mL to prepare a Jurkat cell suspension.
0.25 mL of the prepared A549 cell suspension and 0.25 mL of the prepared Jurkat cell suspension (the ratio of the number of the cells is 10:1) were added into each well in a 24-well plate. 0.25 mL of A549 cells and 0.25 mL of RPMI medium were mixed and the mixture was cultured at 37° C. and 5% CO2 to prepare an A549 blank containing only A549 cells which is not co-cultured with Jurkat cells. The PD-L1 expression in A549 cells after 2 days from IFN-γ treatment and the PD-1 expression in Jurkat cells stimulated with PMA and PHA were confirmed by staining the cells with anti-CD274-PC7 antibody (PD-L1) or anti-CD279-FITC antibody (PD-1, eBioscience Cat No. 11-9969-42) in a similar procedure to that of Test Example 2 and measuring the stained cells with a flow cytometer.
The cells were cultured under the following 6 conditions.
(IF−Comp−): Co-culture of A549 cells pre-cultured without the addition of IFN-γ and the test compound as well as Jurkat cells
(IF+Comp−): Co-culture of A549 cells pre-cultured with the addition of IFN-γ and no test compound as well as Jurkat cells
(IF+Comp+): Co-culture of A549 cells pre-cultured with the addition of IFN-γ and the test compound as well as Jurkat cells
(A:IF−Comp−): Culture of only […] A549 cells pre-cultured without the addition of IFN-γ and the test compound
(A:IF+Comp−): Culture of only A549 cells pre-cultured with the addition of IFN-γ and no test compound […]

| IC50 | SMILES | activity at 0.25 µM (Jurkat, 0.25 μM, control (DMSO) defined as 100%) | activity at 0.5 µM (Jurkat, 0.5 μM, control (DMSO) defined as 100%) | activity at 1 µM (Jurkat, 1 μM, control (DMSO) defined as 100%) |
| --- | --- | --- | --- | --- |
| 1100 nM | O=C(Nc1ccc(Oc2ccc(C(F)(F)F)cc2)cc1)C1CCCN(C(=O)c2ccc([N+](=O)[O-])cc2)C1 (stereo not shown) [Example 2, 1-(4-Nitrobenzoyl)-N-(4-(4-(trifluoromethyl)phenoxy)phenyl) piperidine-3-carboxamide] |  |  |  |
| 870 nM | COc1cc(C(=O)N2CCCC(C(=O)Nc3ccc(Oc4ccc(C(F)(F)F)cc4)cc3)C2)ccc1O (stereo not shown) [Example 3, 1-(4-Hydroxy-3-methoxybenzoyl)-N-(4-(4-(trifluoromethyl)phenoxy)phenyl)piperidine-3-carboxamide] |  |  |  |
| 520 nM | O=C(Nc1ccc(Oc2ccc(S(F)(F)(F)(F)F)cc2)cc1)C1CCCN(C(=O)c2ccc([N+](=O)[O-])cc2)C1 (stereo not shown) [Example 5, 1-(4-Nitrobenzoyl)-N-(4-(4-(pentafluorosulfanyl)phenoxy)phenyl)piperidine-3-carboxamide] | 81.5% | 55.3% | 32.1% |
| 740 nM | COc1cc(C(=O)N2CCCC(C(=O)Nc3ccc(Oc4ccc(S(F)(F)(F)(F)F)cc4)cc3)C2)ccc1O (stereo not shown) [Example 6, 1-(4-Hydroxy-3-methoxybenzoyl)-N-(4-(4-(pentafluorosulfanyl)phenoxy)phenyl)piperidine-3-carboxamide] |  |  |  |
